Experiments:
[1] = system: rat; conditions: Peri- and post-natal toxicity study (Segment III), sprague dawley, Oral, Gavage/Intubation, dose end: 43 PND
[2] = system: rat; conditions: Peri- and post-natal toxicity study (Segment III), sprague dawley, Oral, Gavage/Intubation, dose end: 40 PND
[3] = system: rat; conditions: Multigenerational reproductive toxicity study, sprague dawley, Oral, Gavage/Intubation, dose end: 2 generation
[4] = system: rabbit; conditions: Prenatal developmental toxicity study, new zealand white, Oral, Gavage/Intubation, dose end: 19 GD
[5] = system: rat; conditions: Prenatal developmental toxicity study, sprague dawley, Oral, Gavage/Intubation, dose end: 15 GD
[6] = system: mouse; conditions: Prenatal developmental toxicity study, cd1, Oral, Gavage/Intubation, dose end: 15 GD
[7] = system: mouse; conditions: Multigenerational reproductive toxicity study, cd1, Oral, Feed, dose end: 1 generation
[8] = group: developmental, developmental / developmental landmark / vaginal opening / vaginal opening
[9] = group: maternal, reproductive / reproductive performance / estrous cycle / [other]
[10] = group: maternal, reproductive / reproductive performance / estrous cycle / [other] + reproductive / reproductive performance / estrous cycle / abnormal + …
[11] = group: parental, systemic / organ weight / liver / absolute + systemic / organ weight / ovary / absolute + systemic / organ weight / pituitary gland / …
[12] = group: maternal, reproductive / reproductive performance / estrous cycle / corpora lutea
[13] = group: parental, systemic / pathology microscopic / ovary / follicle count + systemic / pathology microscopic / uterus / thickened
[14] = group: offspring, systemic / organ weight / thymus / absolute
[15] = group: offspring, systemic / organ weight / thymus / absolute + systemic / organ weight / thymus / relative to body weight
[16] = group: parental, systemic / organ weight / liver / absolute + systemic / organ weight / liver / relative to body weight
[17] = group: parental, systemic / organ weight / liver / absolute + systemic / organ weight / liver / relative to body weight + systemic / in life observation / …
[18] = group: developmental, developmental / developmental malformation / bone / misshapen + developmental / developmental malformation / gallbladder / hypoplasia + …
[19] = group: maternal, systemic / in life observation / body weight / body weight + systemic / in life observation / body weight / body weight gain + systemic / in…
[20] = group: developmental, systemic / in life observation / body weight / fetal weight
[21] = group: maternal, systemic / in life observation / body weight / body weight gain + systemic / in life observation / clinical signs / fur (altered appearance…
[22] = group: maternal, systemic / in life observation / mortality / mortality
[23] = group: maternal, systemic / in life observation / mortality / mortality + systemic / organ weight / liver / absolute + systemic / organ weight / uterus / nos
[24] = group: parental, systemic / in life observation / body weight / body weight + systemic / organ weight / kidney / nos + systemic / organ weight / liver / nos…
[25] = group: reproductive, reproductive / reproductive performance / fertility / fertility + reproductive / offspring survival early / live fetuses / live fetuses
[26] = group: reproductive, reproductive / reproductive performance / fertility / fertility + reproductive / offspring survival early / live fetuses / live fetuses + …

SMILES: COc1ccc(C(c2ccc(OC)cc2)C(Cl)(Cl)Cl)cc1 [Methoxychlor]
- LEL [1, 8]: 12.5 mg/kg/day
- LOAEL [1, 8]: > 50 mg/kg/day
- NEL [1, 8]: < 12.5 mg/kg/day
- NOAEL [1, 8]: ≥ 50 mg/kg/day
- LEL [1, 9]: 12.5 mg/kg/day
- NEL [1, 9]: < 12.5 mg/kg/day
- LOAEL [1, 10]: > 50 mg/kg/day
- NOAEL [1, 10]: ≥ 50 mg/kg/day
- LEL [1, 11]: 50 mg/kg/day
- LOAEL [1, 11]: > 50 mg/kg/day
- NEL [1, 11]: 25 mg/kg/day
- NOAEL [1, 11]: ≥ 50 mg/kg/day

SMILES: CC(C)COC(=O)c1ccc(O)cc1 [Isobutylparaben]
- LEL [2, 12]: 62.5 mg/kg/day
- LOAEL [2, 12]: > 1000 mg/kg/day
- NEL [2, 12]: < 62.5 mg/kg/day
- NOAEL [2, 12]: ≥ 1000 mg/kg/day
- LEL [2, 13]: 62.5 mg/kg/day
- LOAEL [2, 13]: > 1000 mg/kg/day
- NEL [2, 13]: < 62.5 mg/kg/day
- NOAEL [2, 13]: ≥ 1000 mg/kg/day

SMILES: CCCCc1ccccc1 [Butylbenzene]
- NEL [3, 14]: 100 mg/kg/day
- NOAEL [3, 14]: 100 mg/kg/day
- LEL [3, 15]: 300 mg/kg/day
- LOAEL [3, 15]: 300 mg/kg/day
- LEL [3, 16]: 30 mg/kg/day
- NEL [3, 16]: < 30 mg/kg/day
- LOAEL [3, 17]: 100 mg/kg/day
- NOAEL [3, 17]: 30 mg/kg/day

SMILES: CC1=C(C(=O)Nc2ccccc2)S(=O)(=O)CCO1 [Oxycarboxin]
- LEL [4, 18]: 750 mg/kg/day
- LOAEL [4, 18]: 750 mg/kg/day
- NEL [4, 18]: 150 mg/kg/day
- NOAEL [4, 18]: 150 mg/kg/day
- LEL [4, 19]: 750 mg/kg/day
- LOAEL [4, 19]: 750 mg/kg/day
- NEL [4, 19]: 150 mg/kg/day
- NOAEL [4, 19]: 150 mg/kg/day

SMILES: CN(C)[C@@H]1C(=O)C(C(N)=O)=C(O)[C@@]2(O)C(=O)C3=C(O)c4c(O)cccc4[C@@](C)(O)[C@H]3[C@H](O)[C@@H]12 [Oxytetracycline]
- LEL [5, 20]: 1200 mg/kg/day
- LOAEL [5, 20]: > 1500 mg/kg/day
- NEL [5, 20]: < 1200 mg/kg/day
- NOAEL [5, 20]: ≥ 1500 mg/kg/day
- LEL [5, 21]: 1200 mg/kg/day
- LOAEL [5, 21]: > 1500 mg/kg/day
- NEL [5, 21]: < 1200 mg/kg/day
- NOAEL [5, 21]: ≥ 1500 mg/kg/day
- LEL [6, 20]: 2100 mg/kg/day
- LOAEL [6, 20]: > 2100 mg/kg/day
- NEL [6, 20]: 1670 mg/kg/day
- NOAEL [6, 20]: ≥ 2100 mg/kg/day
- LEL [6, 22]: 1320 mg/kg/day
- NEL [6, 22]: < 1320 mg/kg/day
- LOAEL [6, 23]: > 2100 mg/kg/day
- NOAEL [6, 23]: ≥ 2100 mg/kg/day

SMILES: CCCCCOC(=O)c1ccccc1C(=O)OCCCCC [Dipentyl phthalate]
- NEL ([7]; group: parental, systemic / in life observation / body weight / body weight + systemic / organ weight / kidney / nos + systemic / organ weight / liver / nos): 2.16 mg/kg/day
- LEL [7, 24]: 4.79 mg/kg/day
- LOAEL [7, 24]: > 4.79 mg/kg/day
- NOAEL [7, 24]: ≥ 4.79 mg/kg/day
- LEL [7, 25]: 0.76 mg/kg/day
- NEL [7, 25]: < 0.76 mg/kg/day
- LOAEL [7, 26]: > 4.79 mg/kg/day
- NOAEL [7, 26]: ≥ 4.79 mg/kg/day

Source: EPA's ToxRefDB 2
